The test addresses human capsaicin receptor (VR1) (Homo sapiens, UniProt Q8NER1). In words: Capsaicin receptor binding assay ([3H]RTX competition, VR1-transfected HEK293 membranes).
human capsaicin receptor (VR1), sequence (Q8NER1 whole entry): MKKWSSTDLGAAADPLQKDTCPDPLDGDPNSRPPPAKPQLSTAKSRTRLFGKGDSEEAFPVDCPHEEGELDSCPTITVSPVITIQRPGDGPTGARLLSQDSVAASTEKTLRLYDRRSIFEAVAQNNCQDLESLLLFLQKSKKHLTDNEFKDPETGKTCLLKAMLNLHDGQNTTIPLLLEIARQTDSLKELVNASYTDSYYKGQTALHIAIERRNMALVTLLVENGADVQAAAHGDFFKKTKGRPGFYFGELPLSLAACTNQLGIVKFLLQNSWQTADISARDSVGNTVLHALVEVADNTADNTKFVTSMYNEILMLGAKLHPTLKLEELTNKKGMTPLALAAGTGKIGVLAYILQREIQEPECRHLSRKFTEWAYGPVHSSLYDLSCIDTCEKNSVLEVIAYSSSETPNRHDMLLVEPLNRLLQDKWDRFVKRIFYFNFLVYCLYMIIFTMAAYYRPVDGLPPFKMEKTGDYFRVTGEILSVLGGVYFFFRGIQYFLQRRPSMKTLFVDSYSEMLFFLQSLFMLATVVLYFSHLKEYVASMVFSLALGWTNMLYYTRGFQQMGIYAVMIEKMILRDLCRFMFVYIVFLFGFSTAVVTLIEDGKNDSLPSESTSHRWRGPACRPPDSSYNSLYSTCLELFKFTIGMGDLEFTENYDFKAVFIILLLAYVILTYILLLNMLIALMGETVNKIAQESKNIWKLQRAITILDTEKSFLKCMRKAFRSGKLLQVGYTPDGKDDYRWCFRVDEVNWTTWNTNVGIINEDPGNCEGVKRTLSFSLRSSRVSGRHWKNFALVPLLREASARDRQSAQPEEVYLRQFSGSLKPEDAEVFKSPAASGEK
With `NC(=O)C1CCN(Cc2nc(Nc3ccc(C(F)(F)F)nc3)c3ccc(-c4ncccc4C(F)(F)F)cc3n2)CC1` [Compound 487, 1-[7-(3-Trifluoromethyl-pyridin-2-yl)-4-(6-trifluoromethyl-pyridin-3-ylamino)-quinazolin-2-ylmethyl]-piperidine-4-carboxylic acid amide], the Ki is < 1 µM.

As to `CCOC(=O)C1CCCN(Cc2nc(Nc3ccc(C(F)(F)F)nc3)c3ccc(-c4ncccc4C(F)(F)F)cc3n2)C1` (centres unmarked) [Compound 488, 1-[7-(3-Trifluoromethyl-pyridin-2-yl)-4-(6-trifluoromethyl-pyridin-3-ylamino)-quinazolin-2-ylmethyl]-piperidine-3-carboxylic acid ethyl ester], the Ki is < 1 µM.

Turning to `CC(=O)N1CCN(Cc2nc(Nc3ccc(C(F)(F)F)nc3)c3ccc(-c4ncccc4C(F)(F)F)cc3n2)CC1` [Compound 489, 1 -{4-[7-(3-Trifluoromethyl-pyridin-2-yl)-4-(6-trifluoromethyl-pyridin-3-ylamino)-quinazolin-2-ylmethyl]-piperazin-1-yl}-ethanone], the inhibitory constant (Ki) was < 1 µM.

Regarding `OCC1CCCN(Cc2nc(Nc3ccc(C(F)(F)F)nc3)c3ccc(-c4ncccc4C(F)(F)F)cc3n2)C1` (centres unmarked) [Compound 490, {1-[7-(3-Trifluoromethyl-pyridin-2-yl)-4-(6-trifluoromethyl-pyridin-3-ylamino)-quinazolin-2-ylmethyl]-piperidin-3-yl}-methanol], the Ki was < 1 µM.

In the case of `CCOC(=O)C1CCN(Cc2nc(Nc3ccc(C(F)(F)F)nc3)c3ccc(-c4ncccc4C(F)(F)F)cc3n2)CC1` [Compound 491, 1-[7-(3-Trifluoromethyl-pyridin-2-yl)-4-(6-trifluoromethyl-pyridin-3-ylamino)-quinazolin-2-ylmethyl]-piperidine-4-carboxylic acid ethyl ester], the Ki is < 1 µM.

As for `OCCN1CCN(Cc2nc(Nc3ccc(C(F)(F)F)nc3)c3ccc(-c4ncccc4C(F)(F)F)cc3n2)CC1` [Compound 492, 2-{4-[7-(3-Trifluoromethyl-pyridin-2-yl)-4-(6-trifluoromethyl-pyridin-3-ylamino)-quinazolin-2-ylmethyl]-piperazin-1-yl}-ethanol], the Ki was < 1 µM.

As to `OCCC1CCN(Cc2nc(Nc3ccc(C(F)(F)F)cc3)c3ccc(-c4ncccc4C(F)(F)F)cc3n2)CC1` [Compound 494, 2-{1-[4-(4-Trifluoromethyl-phenylamino)-7-(3-trifluoromethyl-pyridin-2-yl)-quinazolin-2-ylmethyl]-piperidin-4-yl}-ethanol], the inhibitory constant (Ki) is < 1 µM.

As to `OCC1CCN(Cc2nc(Nc3ccc(C(F)(F)F)cc3)c3ccc(-c4ncccc4C(F)(F)F)cc3n2)CC1` [Compound 495, {1-[4-(4-Trifluoromethyl-phenylamino)-7-(3-trifluoromethyl-pyridin-2-yl)-quinazolin-2-ylmethyl]-piperidin-4-yl}-methanol], the Ki was < 1 µM.

As to `OC1CCN(Cc2nc(Nc3ccc(C(F)(F)F)cc3)c3ccc(-c4ncccc4C(F)(F)F)cc3n2)CC1` [Compound 496, 1-[4-(4-Trifluoromethyl-phenylamino)-7-(3-trifluoromethyl-pyridin-2-yl)-quinazolin-2-ylmethyl]-piperidin-4-ol], the Ki is < 1 µM.

Turning to `OCC1CCCCN1Cc1nc(Nc2ccc(C(F)(F)F)cc2)c2ccc(-c3ncccc3C(F)(F)F)cc2n1` (centres unmarked) [Compound 497, {1-[4-(4-Trifluoromethyl-phenylamino)-7-(3-trifluoromethyl-pyridin-2-yl)-quinazolin-2-ylmethyl]piperidin-2-yl}-methanol], the Ki was < 1 µM.

In the case of `CC1CCCN(Cc2nc(Nc3ccc(C(F)(F)F)cc3)c3ccc(-c4ncccc4C(F)(F)F)cc3n2)C1` (centres unmarked) [Compound 498, [2-(3-Methyl-piperidin-1-ylmethyl)-7-(3-yl)-quinazolin-4-yl]-(4-trifluoromethyl-phenyl)-amine], the Ki is < 1 µM.

As for `OC1CCCN(Cc2nc(Nc3ccc(C(F)(F)F)cc3)c3ccc(-c4ncccc4C(F)(F)F)cc3n2)C1` (centres unmarked) [Compound 499, 1-[4-(4-Trifluoromethyl-phenylamino)-7-(3-trifluoromethyl-pyridin-2-yl)-quinazolin-2-ylmethyl]-piperidin-3-ol], the inhibitory constant (Ki) was < 1 µM.

For the molecule `NC(=O)C1CCN(Cc2nc(Nc3ccc(C(F)(F)F)cc3)c3ccc(-c4ncccc4C(F)(F)F)cc3n2)CC1` [Compound 500, 1-[4-(4-Trifluoromethyl-phenylamino)-7-(3-trifluoromethyl-pyridin-2-yl)-quinazolin-2-ylmethyl]-piperidine-4-carboxylic acid amide], the inhibitory constant (Ki) was < 1 µM.

Turning to `CCOC(=O)C1CCCN(Cc2nc(Nc3ccc(C(F)(F)F)cc3)c3ccc(-c4ncccc4C(F)(F)F)cc3n2)C1` (centres unmarked) [Compound 501, 1-[4-(4-Trifluoromethyl-phenylamino)-7-(3-trifluoromethyl-pyridin-2-yl)-quinazolin-2-ylmethyl]-piperidine-3-carboxylic acid ethyl ester], the Ki was < 1 µM.

Take `OCC1CCCN(Cc2nc(Nc3ccc(C(F)(F)F)cc3)c3ccc(-c4ncccc4C(F)(F)F)cc3n2)C1` (centres unmarked) [Compound 502, {1-[4-(4-Trifluoromethyl-phenylamino)-7-(3-trifluoromethyl-pyridin-2-yl)-quinazolin-2-ylmethyl]-piperidin-3-yl}-methanol]: the inhibition constant Ki is < 1 µM.

Consider `CCOC(=O)C1CCN(Cc2nc(Nc3ccc(C(F)(F)F)cc3)c3ccc(-c4ncccc4C(F)(F)F)cc3n2)CC1` [Compound 503, 1-[4-(4-Trifluoromethyl-phenylamino)-7-(3-trifluoromethyl-pyridin-2-yl)-quinazolin-2-ylmethyl]-piper idine-4-carboxylic acid ethyl ester], for which the Ki is < 1 µM.

`OCCN1CCN(Cc2nc(Nc3ccc(C(F)(F)F)cc3)c3ccc(-c4ncccc4C(F)(F)F)cc3n2)CC1` [Compound 504, 2-{4-[4-(4-Trifluoromethyl-phenylamino)-7-(3-trifluoromethyl-pyridin-2-yl)-quinazolin-2-ylmethyl]-piperazin-1-yl}-ethanol]: the inhibitory constant (Ki) is < 1 µM.

On to `CS(=O)(=O)NCc1nc(Nc2ccc(C(F)(F)F)cc2)c2ccc(-c3ncccc3C(F)(F)F)cc2n1` [Compound 506, N-[4-(4-Trifluoromethyl-phenylamino)-7-(3-trifluoromethyl-pyridin-2-yl)-quinazolin-2-ylmethyl]-methanesulfonamide], for which the inhibition constant Ki is < 1 µM.

Regarding `FC(F)(F)c1ccc(Nc2nc(-c3ccncc3)nc3cc(-c4ncccc4C(F)(F)F)ccc23)cc1` [Compound 507, [2-Pyridin-4-yl-7-(3-trifluoromethyl-pyridin-2-yl)-quinazolin-4-yl]-(4-trifluoromethyl-phenyl)-amine], the Ki is < 1 µM.

Regarding `FC(F)(F)c1ccc(Nc2nc(-c3cccnc3)nc3cc(-c4ncccc4C(F)(F)F)ccc23)cc1` [Compound 508, [2-Pyridin-3-yl-7-(3-trifluoromethyl-pyridin-2-yl)-quinazolin-4-yl]-(4-trifluoromethyl-phenyl)-amine], the Ki is < 1 µM.

In the case of `COc1ccc(-c2nc(Nc3ccc(C(F)(F)F)cc3)c3ccc(-c4ncccc4C(F)(F)F)cc3n2)cn1` [Compound 509, [2-(6-Methoxy-pyridin-3-yl)-7-(3-trifluoromethyl-pyridin-2-yl)-quinazolin-4-yl]-(4-trifluoromethyl-phenyl)-amine], the inhibitory constant (Ki) was < 1 µM.

For the molecule `FC(F)(F)c1ccc(Nc2nc(C3N=NN=N3)nc3cc(-c4ncccc4C(F)(F)F)ccc23)cc1` [Compound 510, [2-(5H-Tetrazol-5-yl)-7-(3-trifluoromethyl-pyridin-2-yl)-quinazolin-4-yl]-(4-trifluoromethyl-phenyl)-amine], the Ki was < 1 µM.

On to `CC(C)N1CCN(Cc2nc(Nc3ccc(C(F)(F)F)cc3)c3ccc(-c4ncccc4C(F)(F)F)cc3n2)CC1` [Compound 512, [2-(4-Isopropyl-piperazin-1-ylmethyl)-7-(3-trifluoromethyl-pyridin-2-yl)-quinazolin-4-yl]-(4-trifluoromethyl-phenyl)-amine], for which the Ki was < 1 µM.

As to `COCCN1CCN(Cc2nc(Nc3ccc(C(F)(F)F)cc3)c3ccc(-c4ncccc4C(F)(F)F)cc3n2)CC1` [Compound 514, [2-[4-(2-Methoxy-ethyl)-piperazin-1-ylmethyl]-7-(3-trifluoromethyl-pyridin-2-yl)-quinazolin-4-yl]-(4-trifluoromethyl-phenyl)-amine], the Ki is < 1 µM.

`CN(C)CCN1CCN(Cc2nc(Nc3ccc(C(F)(F)F)cc3)c3ccc(-c4ncccc4C(F)(F)F)cc3n2)CC1` [Compound 515, [2-[4-(2-Dimethylamino-ethyl)-piperazin-1-ylmethyl]-7-(3-trifluoromethyl-pyridin-2-yl)-quinazolin-4-yl]-(4-trifluoromethyl-phenyl)-amine]: the Ki is < 1 µM.

`FC(F)(F)c1ccc(Nc2nc(CN3CCN(CCN4CCCC4)CC3)nc3cc(-c4ncccc4C(F)(F)F)ccc23)cc1` [Compound 517, [2-[4-(Pyrrolidin-1-yl-ethyl)-piperazin-1-ylmethyl]-7-(3-trifluoromethyl-pyridin-2-yl)-quinazolin-4-yl]-(4-trifluoromethyl-phenyl)-amine]: the inhibitory constant (Ki) is < 1 µM.

For the molecule `FC(F)(F)c1ccc(Nc2nc(CN3CCN(CCN4CCOCC4)CC3)nc3cc(-c4ncccc4C(F)(F)F)ccc23)cc1` [Compound 518, [2-[4-(2-Morpholin-4-yl-ethyl)-piperazin-1-ylmethyl]-7-(3-trifluoromethyl-pyridin-2-yl)-quinazolin-4-yl]-(4-trifluoromethyl-phenyl)-amine], the inhibitory constant (Ki) is < 1 µM.

In the case of `CN(C)CCCN1CCN(Cc2nc(Nc3ccc(C(F)(F)F)cc3)c3ccc(-c4ncccc4C(F)(F)F)cc3n2)CC1` [Compound 519, [2-[4-(3-Dimethylamino-propyl)-piperazin-1-ylmethyl]-7-(3-trifluoromethyl-pyridin-2-yl)-quinazolin-4-yl]-(4-trifluoromethyl-phenyl)-amine], the inhibitory constant (Ki) is < 1 µM.

With `COCCN(CCOC)Cc1nc(Nc2ccc(C(F)(F)F)cn2)c2ccc(-c3ncccc3C(F)(F)F)cc2n1` [Compound 521, [2-{[Bis-(2-methoxy-ethyl)-aminol]-methyl}-7-(3-trifluoromethyl-pyridin-2-yl)-quinazolin-4-yl]-(5-trifluoromethyl-pyridin-2-yl)-amine], the Ki was < 1 µM.
